Measurements from patent publication US9346832B2, “Gold complexes for use in the treatment of cancer” (University of Kwazulu-Natal, priority 2010, dated 2016).
Entries after “also recorded” stand apart in the source; their conditions may differ. Like-named read-outs stand apart in the source and are kept apart here.

What was measured:
[1] = test system: HepG2 human hepatocellular carcinoma cells; test: HepG2 cytotoxicity / cell health parameters; format: cell-based
Description: The data for MA_AuPr in Scheme 22 are consistent with a cytotoxic compound capable of inducing apoptosis (programmed cell death) and, indeed, a compound that performs better than the control drug. […] Other cell health parameters which respond are a loss of total cells per well (indicating toxicity due to necrosis, apoptosis or a reduction in cellular proliferation), an increase in nuclear area (indicating necrosis or G2 cell cycle arrest), an increase in cytochrome c release (implying activation of a signalling cascade leading to apoptosis). The latter is particularly relevant as we may rule out cell death by necrosis in the case of MA_AuPr. The mechanism of action of the compound thus leads to cell cycle arrest in the G2 phase and the induction of apoptosis (highly desirable for an anticancer drug). […] Since the compound induces cytochrome c release, cytotoxicity involves apoptosis.

plasma protein = test: Plasma protein binding; format: in vitro ADME; details: LC-MS
Description: (§1) This is why binding to DNA of the intact chelate occurs (FIGS. 14 and 20). However, it is noteworthy that hydrolysis of a Au(III)-Npyrrole bond is a reaction that may be catalyzed by enzymes in plasma and could account for the plasma instability of MA_AuPr.

Microsomal clearance = format: in vitro ADME; details: microsomes
Description: First, the compound is not genotoxic (i.e. mutagenic).

topoisomerase II = topoisomerase II (Homo sapiens, UniProt P11388); test: Topoisomerase II DNA cleavage/relaxation assay, supercoiled plasmid DNA, EB gel (TopoGEN protocol); format: biochemical
Description: The compound MA_AuPr clearly targets topoisomerase II if the statistical analysis of the NCI data for a range of drugs shown in FIG. 13 is correct. MA_AuPr was therefore assayed for its action against topoisomerase II in vitro using TopoGEN's standard protocol over a wide range of test agent concentrations (0.005 to 500 μM) in order to obtain direct experimental proof for the apparent cellular target of the compound to ensure that a fundamental understanding of the mechanism of action of this new class of Au(III) compounds exists. These experiments were performed by the company TopoGEN and at the University of Central Florida. The DNA cleavage experiments were performed in vitro using purified topoisomerase I and II enzymes and supercoiled plasmid DNA as the substrate. The controls that were used in the experiment were linear marker DNA as well as reactions without the gold(III) complex and high concentrations of VP16. The compound VP16 (etoposide) is a commercially available DNA intercalator chemotherapeutic agent, widely used in the treatment of lung and testicular cancers as well as lymphomas. The choice of VP16 as a control is based on the fact that it is a poor topoisomerase II inhibitor, but is a powerful topoisomerase II poison which arrests the enzyme's cycle at the ternary drug-enzyme-DNA cleavage complex stage, leading to observation of linear DNA fragments upon SDS denaturation of the enzyme (i.e., work-up). Comparison of the VP16 results with the results of MA_AuPr would therefore give a good indication of whether the gold(III) chelate is an inhibitor or a poison.
Lane 1 of the gel (FIG. 14) is the control experiment with only supercoiled plasmid DNA present. The control contains no topoisomerase II and so the DNA supercoiled structure cannot be relaxed, as the topoisomerase II enzyme would usually do. […] At a higher concentration of the test agent (50 μM), both supercoiled plasmid DNA and linear cleavage products are observed. […] At very high concentrations (>500 μM), MA_AuPr behaves exclusively as a catalytic inhibitor of the enzyme.
The role of gold(III) in the efficacy of the compound was determined by modifying the structure of MA_AuPr by replacing the Au(III) cation with Pd(II) to afford MA_PdPr (the isoelectronic square planar coordination complex of known structure and geometry^31) and carrying out the DNA relaxation assay with topoisomerase II as before. The metal-free ligand (MA_H2PrLig) was tested under identical conditions to confirm that the mechanism of action is related to the intact structure of the metal chelate.

[2] = format: in vivo, mouse
Description: FIG. 22 is a plot showing the mouse survival data as a function of metallodrug dose for MA_AuPr.
A single dose of the compound was administered by injection over the first week followed by two injections per week per mouse for a total period of 50 days.

calf thymus DNA = test: Calf-thymus DNA titration (absorption hypochroism); format: binding; details: MA series: pH 7.0 phosphate buffer at 37° C.
Description: FIG. 20 is a graph of the titration of MA_AuPr (1.1a) with calf-thymus DNA in aqueous pH 7 phosphate buffer at 37° C.
The hypochroism of the absorption band of the complex at 383 nm was monitored as a function of added ctDNA. […] Ka is the equilibrium binding constant in M^−1, Ct is the total Au(III) complex concentration, and s is the binding site size.

[3] = Hydrolysis in aqueous solution; format: physicochemical; details: aqueous / phosphate buffered aqueous solutions
Description: as §1

[4] = test system: 60 human cancer cell lines; test: NCI-60 five-dose screen, mean cytotoxicity over 60 human cancer cell lines; format: cell-based
Description: The gold(III) complexes of this invention were screened by the National Cancer Institute (NCI, USA) against their panel of 60 different human cancer cell lines. These screens initially entail a one-dose test for the compound at a high concentration (10 μM; e.g. FIGS. 5, 6 and 7). Compounds with a good cytotoxicity profile in the one-dose screen are then subjected to a five-dose screen for the full panel of sixty human cancer cell lines (the so-called 5-dose NCI-60 screen). In the full five-dose screen, the compound concentration is varied in five doses from 10^−8 M to 10^−4 M in order to establish a dose-response function of percentage cell growth versus the concentration of the test agent. […] Similar data will shortly be available for compounds 1.1Y^1b and 1.5Y^1a as these derivatives are in 5-dose screens currently at the NCI.
The mean cytotoxicity data summarized in Scheme 7 were compiled over 60 human cancer cell lines from the NCI database. […] The dose-response curves for the bis(pyrrolide-imine) chelates of the invention are steeper, or harder, than those of all the compounds compared in Scheme 7.

human cancer cell lines = test: Cytotoxicity summary (NCI-60 or independent cytotoxicity screen), Scheme 19; format: cell-based

topoisomerase II, sequence (P11388 whole entry): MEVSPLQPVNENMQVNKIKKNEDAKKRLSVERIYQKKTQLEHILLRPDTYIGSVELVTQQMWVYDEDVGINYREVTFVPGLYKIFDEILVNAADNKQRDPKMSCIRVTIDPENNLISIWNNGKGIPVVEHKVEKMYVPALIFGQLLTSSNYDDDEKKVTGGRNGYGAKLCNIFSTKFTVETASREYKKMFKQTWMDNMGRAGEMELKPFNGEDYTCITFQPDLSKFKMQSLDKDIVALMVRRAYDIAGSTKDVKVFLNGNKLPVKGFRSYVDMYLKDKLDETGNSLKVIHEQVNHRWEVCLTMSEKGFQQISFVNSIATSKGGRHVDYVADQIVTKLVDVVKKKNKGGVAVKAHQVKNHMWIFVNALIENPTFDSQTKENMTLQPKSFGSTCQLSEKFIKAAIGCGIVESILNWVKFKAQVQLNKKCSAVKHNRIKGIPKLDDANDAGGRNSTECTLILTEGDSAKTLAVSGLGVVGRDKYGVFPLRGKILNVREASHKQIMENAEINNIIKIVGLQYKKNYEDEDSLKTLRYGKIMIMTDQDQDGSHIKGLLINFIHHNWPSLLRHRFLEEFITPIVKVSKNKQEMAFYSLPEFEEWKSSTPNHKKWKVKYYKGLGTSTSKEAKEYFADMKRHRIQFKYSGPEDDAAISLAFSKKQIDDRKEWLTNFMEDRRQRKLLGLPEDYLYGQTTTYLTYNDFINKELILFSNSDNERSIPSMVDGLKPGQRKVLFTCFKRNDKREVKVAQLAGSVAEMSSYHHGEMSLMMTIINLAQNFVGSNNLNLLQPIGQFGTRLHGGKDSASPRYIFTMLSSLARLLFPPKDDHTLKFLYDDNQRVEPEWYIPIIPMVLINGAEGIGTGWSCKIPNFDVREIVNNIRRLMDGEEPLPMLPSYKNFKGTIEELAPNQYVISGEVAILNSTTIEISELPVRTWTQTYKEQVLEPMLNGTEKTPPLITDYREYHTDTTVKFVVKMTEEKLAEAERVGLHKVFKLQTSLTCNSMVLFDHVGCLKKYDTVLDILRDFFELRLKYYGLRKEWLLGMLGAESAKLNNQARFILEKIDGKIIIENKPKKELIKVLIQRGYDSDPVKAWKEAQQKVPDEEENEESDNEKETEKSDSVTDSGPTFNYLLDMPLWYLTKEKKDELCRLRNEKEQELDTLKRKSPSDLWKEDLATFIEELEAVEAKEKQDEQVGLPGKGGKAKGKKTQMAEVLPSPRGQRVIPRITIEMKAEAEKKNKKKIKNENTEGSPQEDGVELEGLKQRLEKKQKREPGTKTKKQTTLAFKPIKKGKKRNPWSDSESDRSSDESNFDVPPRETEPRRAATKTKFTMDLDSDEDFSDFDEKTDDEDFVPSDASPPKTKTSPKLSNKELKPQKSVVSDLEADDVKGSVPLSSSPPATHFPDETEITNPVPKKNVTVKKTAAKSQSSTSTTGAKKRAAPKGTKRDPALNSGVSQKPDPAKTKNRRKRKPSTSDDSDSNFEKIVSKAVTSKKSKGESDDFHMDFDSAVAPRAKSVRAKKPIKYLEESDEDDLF

C1=NCCCN=Cc2ccc[n]2[Au+][n]2cccc21.[Cl-] [MA_AuPr, 2,2′-{propane-1,3-diylbis[nitrilo(E)methylylidene]}bis(pyrrol-1-ido)gold(III) chloride]
Cytotoxicity (Hep-G2) [1]: Strong positive
Cytochrome C release MEC ([1]; HepG2): 19 µM
DNA structure MEC ([1]; HepG2): >19 µM
Mitochondrial mass MEC ([1]; HepG2): 2.1 µM
Mitochondrial membrane potential MEC ([1]; HepG2): 6.2 µM
Nuclear Area MEC ([1]; HepG2): 6.2 µM
Cell Loss MEC ([1]; HepG2, minimum effective concentration): <0.23 µM
AC50 ([1]; HepG2, read-out: Cell Loss AC50): 7.4 µM
AC50 ([1]; HepG2, read-out: Cytochrome C release AC50): 33 µM
AC50 ([1]; HepG2, read-out: Membrane permeability AC50): 16 µM
AC50 ([1]; HepG2, read-out: Mitochondrial mass AC50): 41 µM
AC50 ([1]; HepG2, read-out: Mitochondrial membrane potential AC50): > 500 µM
AC50 ([1]; HepG2, read-out: Nuclear Area AC50): 17 µM
Plasma protein binding (plasma protein): did not bind to plasma protein; also recorded: No binding - drug
Microsomal clearance t1/2 (Microsomal clearance): t1/2 < 10 min
concentration at which compound behaves exclusively as catalytic inhibitor (topoisomerase II): > 500 µM
action on topoisomerase II (topoisomerase II; compared with VP-16 (etoposide)): both a poison and a catalytic topoisomerase II inhibitor
concentration of catalytic inhibition of topoisomerase II (topoisomerase II; supercoiled plasmid DNA not relaxed): 50 µM
concentration at which topoisomerase II poisoning (DNA cleavage induction) is observed (topoisomerase II; supercoiled plasmid DNA, linear cleavage products): 0.5 µM
health and weight of mice ([2]; 1 to 30 μmol/kg, 50 days): remained healthy and showed no abnormal weight changes
acute toxicity ([2]; mice, injection, 1 to 30 μmol/kg doses): > 30 μmol/kg/week
chronic toxicity ([2]; mice, two injections per week, 50 days): > 60 μmol/kg/week
Ka (calf thymus DNA) (calf thymus DNA): 2.05(2) × 10^5 M^−1
hydrolysis [3]: did not show hydrolysis
fraction of cancer cell lines equivalently or more susceptible than to cisplatin ([4]; 60 human cancer cell lines): ca. 25%
CC50 ([4]; mean over 60 human cancer cell lines, 50% cell death, read-out: LC50 (the source's name)): 49 µM
GI50 ([4]; mean over 60 human cancer cell lines, 50% growth inhibition): 7 µM
TGI (concentration for total growth inhibition) ([4]; mean over 60 human cancer cell lines, 100% (total) growth inhibition, read-out: TGI or IC50): 20 µM
increase in concentration from 50% growth inhibition to 50% cell kill ([4]; on average over the full 60 cell lines): 7 fold
growth inhibition activity relative to cisplatin, on average ([4]; plot of −log(GI50/M) versus cisplatin, FIG. 10): 95%
Cytotoxicity (human cancer cell lines): active
